For experiment [1], the system named is caspase-9 deficient BLIN-4L. In words: Apoptotic sensitivity of BLIN-4L made deficient in caspase-9 by siRNA, Annexin V. To be noted: Annexin V+ events minus DMSO.
The subject of experiment [2] is leukemia/lymphoma cells. The experiment is described as follows: Pro-apoptotic activity of caspase inhibitor sequences (Table 2). It counts as cell-based. Also on record: key: “−” is no activity; ++++ is maximum activity. The text has this: Caspases are constitutively express in cells, and are usually in their pro-form. In response to an incident, such as irradiation or chemotherapy, the pro-form of the caspase is converted into the activated state. Certain compounds are known that can inhibit caspases. For example, the pan-caspase (PCi) VAD can block all caspases. […] For example, C2i inhibits caspase-2. This particular inhibitor is very dose dependent.

The test system of experiment [3] is CD19+ B-cell precursors. In words: Annexin V staining of sorted cord blood-derived CD19+ B-cell precursors removed from MS-5 stroma. Format: cell-based, human. Conditions: cultured 18 hours, DMSO control 46.5 ± 1.4, Time 0 1.5. Here is the method: Normal B-lineage cells. CD19+ B-lineage cells were derived from CD34+ human cord blood stem cells plated on the murine stromal cell line MS-5 (Itoh Exp Hematol. 1989;17:145-153). MS-5 stromal cells were kindly provided by Dr. Paul Kincade (University of Oklahoma Medical Research Foundation), following permission from Professor K. John Mori (Niigata University, Japan). FACS-purified CD34+/CD38+/lineage—cord blood hematopoietic stem cells were plated onto confluent, non-irradiated MS-5 stromal cells in 96-well flat-bottom plates (200 cells/well) containing Minimal Essential Medium supplemented with 10% FBS. Stem cell factor and G-CSF were added at 10 ng/ml (twice weekly) to enhance the emergence of CD19+ B-lineage cells (Nishihara Eur J Immunol. 1998;28:855-864; Ohkawara Leukemia. 1998;12:764-771). […] Wells were then pooled, stained with PE-conjugated anti-CD 19 + propidium iodide (PI), and sorted on a FACSVantage (BD Immunocytometry Systems, San Jose, Calif.). Cord blood CD34+/CD38+/lineage—cells were provided by Valerie McCullar and Dr. Jeff Miller of the University of Minnesota Cancer Center in accordance with the University of Minnesota Institutional Review Board on Human Subjects.
Flow cytometry. Quantitation of apoptotic events was conducted using a FACS Calibur (BD Immunocytometry Systems). […]

In experiment [4] the test system is BLIN-3 cells. In words: Apoptosis by Annexin V staining and flow cytometry, BLIN-3. To be noted: BLIN-3 removed from adherent fibroblasts, 50 μM. Format: cell-based, human. Here is the method:
(§1) Flow cytometry. Quantitation of apoptotic events was conducted using a FACS Calibur (BD Immunocytometry Systems). All analyses were conducted on cells with lymphoid light scatter characteristics (i.e., low to medium forward scatter and low 90° side scatter).
(§2) iii. Annexin V. FITC-labeled Annexin V (BD Pharmingen, San Diego, Calif.) was used to detect external phosphatidylserine residues appearing on the external surface of early apoptotic cells (Koopman Blood. 1994;84:1415-1420). Cells were stained according to the manufacturers recommendations.
(§3) General experimental strategy. BLIN cell lines were removed from fibroblast monolayers, washed once and resuspended to 7.5×10^5/ml in X-VIVO 10. Two hundred μL of resuspended cells were added to 96-well flat-bottom microtiter plates (ISC Bioexpress, Kaysville, Vt.), followed by 0.5-1.0 μL of caspase inhibitors in DMSO. An identical volume of DMSO alone was added to separate wells as a vehicle control. This final DMSO concentration of 0.25-0.5% vol/vol had no adverse affect on any of the BLIN cell lines. At the indicated times the entire content of individual wells was harvested and stained in the fluorescent protocols described above.
The inventors carried out experiments to test the influence of specific amino acid substitutions on the proapoptotic activity Z-LEHD-fmk. Cells were cultured for 24 hours with various μM concentrations of Z-LEDH-fmk or single amino acid substitution of the parent peptide. All values in the following Table 3 represent the percentage of total Annexin V+ cells (PI+ and PI−) minus the percentage present in culture with DMSO alone (BLIN-2=3%; BLIN-3+7%; BLIN4L=5%).
In general terms: Flow cytometry measures light scatter and fluorescence of single cells or particles in a stream.

For experiment [5], the system named is BLIN cell lines. In words: Enhancement of apoptosis in BLIN cell lines (flow cytometry). It counts as cell-based, human. Conditions: BLIN cell lines. Here is the method: as §1
i. Mitochondrial transmembrane potential (Δψm). The cationic lipophilic fluorescent dye tetramethylrhodamine, ethyl ester, perchlorate (TMRE) was purchased from Molecular Probes, Inc. (Eugene, Oreg.). TMRE has a high degree of membrane permeability and accumulates into mitochondria in accord with the Nernstian equation (Farkas Biophys J. 1989;56:1053-1069). Cells were washed once and re-suspended to 0.5-1.0×10^6/ml in X-VIVO 10. TMRE was added to a final concentration of 50 nM and the cells were incubated in the dark at 37° C. for 15 minutes. Cells were then washed 2× in PBS, resuspended in PBS containing 2 μg/ml of propidium iodide (PI), and immediately analyzed. The protonophore […] (50 μM, CCCP, Sigma) was used as a positive control to effect loss of Δψm in 100% of cells.
ii. YO-PRO-1. The green fluorescent DNA intercalant dye YO-PRO-1 (Idziorek J Immunol Methods. 1995;185:249-258) was purchased from Molecular Probes as the Vybrant Apoptosis Assay Kit #4. Dual staining with YO-PRO and PI allows for the detection of early apoptotic cells (YO-PRO+/PI−) that have undergone initial changes in permeability to small molecules. Cells were stained according to the manufacturers recommendations.
as §2, §3

Experiment [6] relates to PARP (caspase-3/caspase-7 substrate). The experiment is described as follows: Western blotting of PARP cleavage in BLIN-3 and BLIN-4L. It counts as cell-based, human. To be noted: overnight incubation of BLIN-3 and BLIN-4L cells, 50 μM. Here is the method: Western blotting. This method was conducted essentially as previously described.^20 The antibodies used were: rabbit anti-caspase-2 (catalog # sc-625, Santa Cruz Biotechnology Inc., Santa Cruz, Calif.), rabbit anti-caspase-3 (catalog # 9661, Upstate Cell Signaling Solutions, Waltham, Mass.), rabbit anti-caspase-6 (catalog # 9761, Upstate), rabbit anti-caspase-9 (catalog # 9502, Upstate), mouse anti-PARP (catalog # 556494, Pharmingen), and rabbit anti-Bid (catalog # AF846, R&D Systems). The antibodies to caspase-2 and caspase-9 were generated to the procaspase isoforms, whereas the antibodies to caspase-3 and caspase-6 were generated to cleavage products.
As expected, inclusion of 50 μM PCi had no effect. The degree of PARP cleavage in the presence of C9i (greater in BLIN-3 than BLIN-4L) correlated with the percentage of Annexin V+ cells (FIG. 3).
(In western blotting, separated proteins are transferred to a membrane and probed.)

The subject of experiment [7] is CD33+ myeloid cells. The experiment is described as follows: Annexin V staining of sorted cord blood-derived CD33+ myeloid cells removed from MS-5 stroma. It counts as cell-based, human. Conditions: cultured 18 hours, DMSO control 27.9 ± 3.9, Time 0 <10.
Experiment [8] concerns BLIN-3 cells. In words: Loss of mitochondrial transmembrane potential (TMRE) and YO-PRO permeability in BLIN-3. To be noted: BLIN-3 removed from adherent fibroblasts, 50 μM, compared to DMSO. It counts as cell-based, human. Here is the method:
Numbers in the histograms indicate the percentage of PI^- cells that underwent a loss of Δψm. Numbers in the contour plots indicate the percentage of Annexin V^+/PI^- cells. […] Numbers in the contour plots indicate the percentage of YO^- PRO^+/PI^- cells. Numbers in the histograms indicate the percentage of PI^- cells that underwent a loss of Δψm. Flow cytometry. Quantitation of apoptotic events was conducted using a FACS Calibur (BD Immunocytometry Systems). All analyses were conducted on cells with lymphoid light scatter characteristics (i.e., low to medium forward scatter and low 90° side scatter). i. Mitochondrial transmembrane potential (Δψm). The cationic lipophilic fluorescent dye tetramethylrhodamine, ethyl ester, perchlorate (TMRE) was purchased from Molecular Probes, Inc. (Eugene, Oreg.). TMRE has a high degree of membrane permeability and accumulates into mitochondria in accord with the Nernstian equation (Farkas Biophys J. 1989;56:1053-1069). Cells were washed once and re-suspended to 0.5-1.0×10^6/ml in X-VIVO 10. TMRE was added to a final concentration of 50 nM and the cells were incubated in the dark at 37° C. for 15 minutes. […] ii. YO-[…]. The green fluorescent DNA intercalant dye YO-PRO-1 (Idziorek J Immunol Methods. 1995;185:249-258) was purchased from Molecular Probes as the Vybrant Apoptosis Assay Kit #4. […]

The values below come from patent publication US20060040870A1, “Enhancement of apoptosis by caspase-9 inhibitors” (priority 2004, published 2006).

The star is where a group is joined. Cbz = O=C(OCc1ccccc1)*; CH2F = FC*

With `COc1cc([C@@H]2c3cc4c(cc3[C@@H](O[C@@H]3O[C@@H]5CO[C@@H](C)O[C@H]5[C@H](O)[C@H]3O)[C@H]3COC(=O)[C@H]23)OCO4)cc(OC)c1O` [etoposide], the “apoptotic response of caspase-9 deficient BLIN-4L compared with control siRNA treated cells” value in experiment [1] is “no difference”.
On the same count and under the same terms, the entry for `CN[C@@H]1C[C@H]2O[C@@](C)([C@@H]1OC)n1c3ccccc3c3c4c(c5c6ccccc6n2c5c31)C(=O)NC4` [staurosporine] is “significantly more sensitive”.
On to “Cbz-VDVAD-CH2F [C2i, reference compound]”, for which the “Pro-apoptotic Activity (after 24 hours)” value in experiment [2] is listed as “−”.
Still for that read-out and setting: in the case of Cbz-VEID-CH2F [C6i, reference compound] it was “−”; in that of LEAD [C9i/H > A], “−”; in that of “LEED (printed: Leu-Glu-Glu-Asp) [C9i/H > E, variant of Z-LEHD-fmk, Leu-Glu-Glu-Asp]”, “−”.
Same read-out and setting: in the case of LEHD [C91/ΔFMK] it was “−”; in that of “WEHD (printed: Trp-Glu-His-Asp) [C9i/L > W, variant of Z-LEHD-fmk, Trp-Glu-His-Asp]”, “++++”; in that of Z-DEVD-fmk [C3i, reference compound], “−”.
Consider Z-VAD-fmk [PCi, reference compound], for which the “percentage of total Annexin V+ cells (PI+ and PI−), mean ± SD” value was determined as 39.5 ± 1.8 % in experiment [3] and 18.0 ± 3.9 % in experiment [7]. Moreover, the “appearance of Annexin V+ cells” value in experiment [4] is “completely blocked”. Also, in experiment [2], the “Pro-apoptotic Activity (after 24 hours)” value is “−”. Also, in experiment [5], the enhancement of apoptosis entry is “did not enhance apoptosis”. Besides, the “cleavage of the caspase-3/caspase-7 substrate PARP” value in experiment [6] is recorded as “had no effect”. In experiment [8], the “loss of Δψm (TMRE)” value is on record as “did not prevent loss of Δψm”.
